Entries after “also recorded” stand apart in the source; their conditions may differ. Where two headings read alike, the source gives them in different places.
Tests used:
[1] = system: pain in cancer patients; test: clinical data mining: patients complaining about pain in lapatinib clinical trials; type: in vivo, human; set-up: Pain decreased compared to control group (%): Arthralgia / Pain decreased compared to control group (%): Musculoskeletal Pain / Pain decreased compared to control group (%): Headache / Pain decreased compared to control group (%): Oral pain / Pain decreased compared to control group (%): Pain-overall / Pain decreased compared to control group (%): Myalgia: concentration or dose not given beside the values
Procedure: The “other adverse events” part of the clinical report was analyzed.
In particular, all of the data from clinical trials NCT00424255, NCT00390455, NCT00371566, and NCT00374322 was collected together as a larger dataset.
(§1) All p values on the differences between groups were calculated using χ^2 tests on GraphPad Prism 6.0. Confidence interval was set at 95%. […] Barnard's tests or Fisher's tests were not chosen due to the large sample size and Yate's correction on χ^2 tests was not adopted due to the same reason.

[2] = system: pain in cancer patients; settings: cited from earlier work
[3] = biological target: T1, human mPGES-1 (Homo sapiens, UniProt O14684); test: in vitro inhibitory activity against human mPGES-1 (PGE2 enzyme immunoassay); type: biochemical
T1 construct: made in house
T1 sequence (O14684 1-152): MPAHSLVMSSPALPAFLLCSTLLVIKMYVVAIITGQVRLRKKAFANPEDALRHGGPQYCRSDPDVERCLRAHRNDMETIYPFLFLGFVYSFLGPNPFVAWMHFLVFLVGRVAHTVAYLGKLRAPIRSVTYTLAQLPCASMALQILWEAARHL
Procedure: The above computational predictions were followed by in vitro activity assays for their actual inhibitory activity against human mPGES-1 using an ELISA assay previously-described.^16-17, 19 Specifically, a total of 18 FDA-approved drugs were assayed for their inhibitory activity against human mPGES-1.
The protocol for the protein preparation and in vitro activity assays were the same as described previously.^69-72 The enzyme activity assays were performed on ice in 1.5 ml microfuge tubes by using the expressed human mPGES-1. The reaction mixture contained: 0.2 M Na2HPO4/NaH2PO4, pH 7.2, 10 μL; 0.1 M GSH, 2.5 μL; diluted microsomal enzyme (80 μg/mL), 1 μL; PGH2 (0.31 mM in DMF), 5 μL; 1 μL inhibitor; and H2O in a final reaction volume of 100 μL. PGH2 was stored in dry ice and used to initiate the reaction. Compounds were incubated with the enzyme for 15 min at room temperature before the addition of cold PGH2 (1 μM final) to initiate the enzyme reaction. After 30 s, 10 μL of SnCl2 (40 mg/mL) in ethanol was added to stop the reaction. The non-enzymatic conversion of PGH2 to PGE2 was performed in the same buffer devoid of enzyme. The reaction mixture was placed on ice until PGE2 production was determined by the PGE2 enzyme immunoassay as described earlier. IC50 values of the inhibitors were calculated by using the GraphPad Prism 6.0.

[4] = human, read-out: Cmax (μM) in plasma, cited from earlier work
[5] = system: pain symptoms in inflammatory breast cancer patients; settings: lapatinib monotherapy, n=17, not statistically significant (p>0.05); cited from earlier work
[6] = system: pain in cancer patients; settings: NCT00490139 Group III: oral lapatinib 1500 mg daily, 52 weeks; cited from earlier work
[7] = biological target: T1, human mPGES-1; test: in vitro inhibitory activity against human mPGES-1 (PGE2 enzyme immunoassay); type: biochemical; settings: lapatinib constant 1 μM, GSH at different concentrations (FIG. 3D)
[8] = system: pain in cancer patients; test: clinical data mining: pain complaints in phase III clinical trial NCT00490139; type: in vivo, human; settings: compared to patients given only trastuzumab (FIG. 5)
Procedure: as §1

[9] = all individual pains added, four trials
[10] = combined NCT00374322, NCT00390455
[11] = combined NCT00374322, NCT00390455, NCT00424255, NCT00371566
[12] = combined NCT00390455, NCT00424255
[13] = combined NCT00424255, NCT00371566
[14] = combined nine trials (footnote e)
[15] = NCT00371566, with drug total 69
[16] = NCT00374322, with drug total 1573
[17] = NCT00390455, with drug total 141
[18] = NCT00424255, with drug total 349

CS(=O)(=O)CCNCc1ccc(-c2ccc3ncnc(Nc4ccc(OCc5cccc(F)c5)c(Cl)c4)c3c2)o1 [lapatinib]
# of patients complaining pain/# of patients given lapatinib, Counts: Pain-overall [1, 9]: 304/4754
patients complaining pain, Percentage (%): Pain-overall [1, 9]: 6.39%
Pain decreased compared to control group (%): Pain-overall ([1]; all individual pains added, four trials, control drugs or placebo): 28.00%
# of patients complaining pain/# of patients given lapatinib, Counts: Arthralgia [1, 10]: 72/1714
patients complaining pain, Percentage (%): Arthralgia [1, 10]: 4.20%
# of patients complaining pain/# of patients given lapatinib, Counts: Headache [1, 11]: 182/2132
patients complaining pain, Percentage(%): Headache [1, 11]: 8.54%
Pain decreased compared to control group (%): Headache ([1]; combined NCT00374322, NCT00390455, NCT00424255, NCT00371566, control drugs or placebo): 23.02%
Pain decreased compared to control group (%): Arthralgia ([1]; combined NCT00374322, NCT00390455, control drugs or placebo): 39.60%
# of patients complaining pain/# of patients given lapatinib, Counts: Musculoskeletal Pain [1, 12]: 15/490
patients complaining pain, Percentage (%): Musculoskeletal Pain [1, 12]: 3.06%
Pain decreased compared to control group (%): Musculoskeletal Pain ([1]; combined NCT00390455, NCT00424255, control drugs or placebo): 39.67%
# of patients complaining pain/# of patients given lapatinib, Counts: Oral pain [1, 13]: 35/418
patients complaining pain, Percentage (%): Oral pain [1, 13]: 8.37%
Pain decreased compared to control group (%): Oral pain ([1]; combined NCT00424255, NCT00371566, control drugs or placebo): 18.03%
# of patients complaining pain/# of patients given lapatinib, Counts: Myalgia [1, 14]: 321/3314
patients complaining pain, Percentage (%): Myalgia [1, 14]: 9.69%
Pain decreased compared to control group (%): Myalgia ([1]; combined nine trials (footnote e), control drugs or placebo): 14.02%
overall pain relief (in words) ([1]; pain-overall category, combined trials, p<0.05): significantly relieve pain in cancer patients
Headache, With drug pains [2, 15]: 3
Oral pain, With drug pains [2, 15]: 10
patients reporting arthralgia / patients in lapatinib group ([2]; NCT00374322, vs placebo 113/1574): 69/1573
patients reporting headache / patients in lapatinib group ([2]; NCT00374322, vs placebo 185/1574): 140/1573
Arthralgia, With drug pains [2, 16]: 69
Headache, With drug pains [2, 16]: 140
Arthralgia, With drug pains [2, 17]: 3
Back Pain, With drug pains [2, 17]: 5
Bone Pain, With drug pains [2, 17]: 3
Headache, With drug pains [2, 17]: 19
Musculoskeletal Pain, With drug pains [2, 17]: 0
Pain In Extremity, With drug pains [2, 17]: 1
Pain-chest/thorax, With drug pains [2, 17]: 1
Headache, With drug pains [2, 18]: 20
Musculoskeletal Pain, With drug pains [2, 18]: 15
Oral pain, With drug pains [2, 18]: 25
IC50 [3]: 0.8 µM
Cmax ([4]; 1250 mg orally once daily, trial NCT00477464): 6.06 µM
Cmax ([4]; 1500 mg (6 pills at 250 mg) once oral daily, trials NCT00486954 and NCT01138046, average Cmax): 8.6 µM
Cmax ([4]; dose 10 mg, GW572016 ditosylate monohydrate oral suspension (Bence et al.)): 0.019 µM
Cmax ([4]; dose 25 mg, GW572016 ditosylate monohydrate oral suspension (Bence et al.)): 0.04 µM
Cmax ([4]; dose 50 mg, GW572016 ditosylate monohydrate oral suspension (Bence et al.)): 0.124 µM
Cmax ([4]; dose 100 mg, GW572016 ditosylate monohydrate oral suspension (Bence et al.)): 0.213 µM
Cmax ([4]; dose 175 mg, GW572016 ditosylate monohydrate oral suspension (Bence et al.)): 0.38 µM
Cmax ([4]; dose 250 mg, GW572016 ditosylate monohydrate oral suspension (Bence et al.)): 0.546 µM
Cmax ([4]; dose 500 mg, tablets, daily oral, trial EGF10004): 1.76 µM
Cmax ([4]; dose 650 mg, tablets, daily oral, trial EGF10004): 2.24 µM
Cmax ([4]; dose 1000 mg, tablets, daily oral, trial EGF10004): 3.18 µM
relief from symptoms including pain (in words) [5]: provide relief from symptoms, including pain, in the short term
Arthralgia, Patient counts [6]: 290/2057
Arthralgia, patient percentage [6]: (14.10%)
Back Pain, patient percentage [6]: (5.79%)
Bone Pain, Patient counts [6]: 91/2057
Bone Pain, patient percentage [6]: (4.42%)
Headache, Patient counts [6]: 161/2057
Headache, patient percentage [6]: (7.83%)
Musculoskeletal pain, Patient counts [6]: 70/2057
Musculoskeletal pain, patient percentage [6]: (3.40%)
Pain in Extremity, Patient counts [6]: 99/2057
Pain in Extremity, patient percentage [6]: (4.81%)
competition with co-factor GSH [7]: competes with co-factor GSH; also recorded: GSH-competitive inhibitor
pain relief in NCT00490139 (in words) [8]: significantly relive all types of pain (p<0.05), except for the back pain
